Consider one molecule from patent US8362227B2, “Detection of clostridium difficile” (Mayo Foundation for Medical Education and Research, priority 2008, dated 2013).

In this test the test system is C. difficile culture positive isolates. Description: Agar dilution MIC testing of anaerobes (moxifloxicin susceptibility). The following applies: for Susceptibility to Moxifloxicin, I = 4 (number of specimens): I = intermediate; for Susceptibility to Moxifloxicin, I = 4 (number of specimens) / Susceptibility to Moxifloxicin, R > 8 (number of specimens) / Susceptibility to Moxifloxicin, S ≦ 2 (number of specimens): agar dilution; for Susceptibility to Moxifloxicin, R > 8 (number of specimens): R = resistant; for Susceptibility to Moxifloxicin, S ≦ 2 (number of specimens): S = susceptible. The test is classed as cell-based, Clostridium difficile. Here is the method:
Moxifloxicin susceptibility testing by agar dilution was performed on all C. difficile culture positive isolates. Growth from subculture plates was suspended in pre-reduced Schaedler's broth to McFarland 0.5 turbidity. A Steers replicator seed block was used to inoculate the moxifloxicin plate from lowest to highest dilution. The inoculated media was incubated under anaerobic conditions for 48 hours before endpoint determination was read. The testing was performed and interpreted as defined in CLSI document M11-A7.
Background: In agar dilution the substance is mixed into plates at graded concentrations.

Where [1] appears, read: LIGHTCYCLER PCR bp deletions demonstrated in tcdC.
The mark [2] stands for this setting: LIGHTCYCLER PCR no deletions demonstrated.

For the molecule `COc1c(N2C[C@@H]3CCCN[C@@H]3C2)c(F)cc2c(=O)c(C(=O)O)cn(C3CC3)c12` [Moxifloxicin], the “specimens with tcdC gene deletions showing resistance to moxifloxicin” value (13 specimens with the tcdC gene deletions) is reported as 46%. For the same molecule, the “Susceptibility to Moxifloxicin, I = 4 (number of specimens)” value is 0 under setting [1] and 2 under setting [2]. Further, the “Susceptibility to Moxifloxicin, R > 8 (number of specimens)” value stood at 6 under setting [1] and 7 under setting [2]. For the same molecule, the “Susceptibility to Moxifloxicin, S ≦ 2 (number of specimens)” value worked out at 7 under setting [1] and 20 under setting [2]. Further, the “Susceptibility to Moxifloxicin, I = 4 (number of isolates)” value is, setting by setting: (Total, all 49 C. difficile culture positive isolates, intermediate at 4 μg/mL) 2; (Total, all 49 C. difficile culture positive isolates, intermediate at 4 μg/mL, listed as moxifloxicin) “two”. For the setting “Total, all 49 C. difficile culture positive isolates, resistant”, the “Susceptibility to Moxifloxicin, R > 8 (number of isolates)” value is 13. The “Susceptibility to Moxifloxicin, S ≦ 2 (number of isolates)” value by setting is: (Total, all 49 C. difficile culture positive isolates, susceptible at ≦2 μg/mL) 32; (Total, all 49 C. difficile culture positive isolates, susceptible at ≦2 μg/mL, listed as moxifloxicin) “Thirty-two”. For the same molecule, the “culture positive isolates intermediate to moxifloxicin” value (intermediate at 4 μg/mL, 49 C. difficile culture positive isolates) was found to be 4%. In addition, the “culture positive isolates resistant to moxifloxicin” value (resistant at ≧8 μg/mL, 49 C. difficile culture positive isolates) is recorded as 26%. Where the note is “susceptible at ≦2 μg/mL, 49 C. difficile culture positive isolates”, the “culture positive isolates susceptible to moxifloxicin” value is reported as 65%.
